What all share (assay): relative viability (nuclei count vs DMSO), 5 days (fraction); higher = more cells survive
Compound in assay [1]: CCCS(=O)(=O)Nc1ccc(F)c(C(=O)c2c[nH]c3ncc(-c4ccc(Cl)cc4)cc23)c1F [Vemurafenib] + CS(=O)(=O)N1CCN(Cc2cc3nc(-c4cccc5[nH]ncc45)nc(N4CCOCC4)c3s2)CC1 [Pictilisib] (partner 1 µM)
A digest of the protocol:
(§1)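 Cells from lung cancer lines were seeded into 1536-well plates and, one day later, dosed by pin tool. Treatments were either a single drug or a fixed dose of an anchor drug with five library-drug doses (not always all listed) in √10 steps. After 5 days, nuclei were stained in a one-step fixation (final 0.05% Triton X-100, 1% formaldehyde, 1 ug/ml Hoechst) and counted on 4× images, and relative viability is the treated-to-vehicle nuclei ratio, as the median of duplicate plates.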

Compound in assay [2]: COc1cccc2cc(-c3nc([C@H]4CC[C@H](C(=O)O)CC4)n4ncnc(N)c34)[nH]c12 [OSI-027] + Cc1nc(NC(=O)N2CCC[C@H]2C(N)=O)sc1-c1ccnc(C(C)(C)C(F)(F)F)c1 [Alpelisib] (partner 2 µM)
A digest of the protocol:
as §1

Compound in assay [3]: Cc1nc(NC(=O)N2CCC[C@H]2C(N)=O)sc1-c1ccnc(C(C)(C)C(F)(F)F)c1 [Alpelisib] + O=C(c1cc(Cc2n[nH]c(=O)c3ccccc23)ccc1F)N1CCN(C(=O)C2CC2)CC1 [Olaparib] (partner 8 µM)
A digest of the protocol: as §1

Compound in assay [4]: Cc1nc(NC(=O)N2CCC[C@H]2C(N)=O)sc1-c1ccnc(C(C)(C)C(F)(F)F)c1 [Alpelisib] + C[C@]1(O)C[C@@H](c2nc(-c3ccc4ccc(-c5ccccc5)nc4c3)c3c(N)nccn32)C1 [Linsitinib] (partner 1 µM)
The procedure, abridged: as §1

These results are taken from the supplement of paper PMC10307832.

As to UMC-11, the relative viability in assay [1] (first compound 0.03162 µM) was 0.867; in assay [1] (first compound 0.1 µM) it was 0.801; in assay [1] (first compound 0.3162 µM), 0.714; in assay [1] (first compound 1 µM) it was 0.348; in assay [2] (first compound 0.01 µM), 1.09; in assay [2] (first compound 0.03162 µM), 0.818. In addition, the relative viability was 0.881 in assay [2] (first compound 0.1 µM); 0.597 in assay [2] (first compound 0.3162 µM); 0.49 in assay [2] (first compound 1 µM); 0.362 in assay [3] (first compound 0.04 µM); 0.328 in assay [3] (first compound 0.1265 µM); 0.389 in assay [3] (first compound 0.4 µM). Besides, the relative viability in assay [3] (first compound 1.265 µM) came out at 0.346; in assay [3] (first compound 4 µM), 0.315; in assay [4] (first compound 0.04 µM), 0.953; in assay [4] (first compound 0.1265 µM), 1.03; in assay [4] (first compound 0.4 µM) it was 1.09; in assay [4] (first compound 1.265 µM) it was 0.995. The relative viability in assay [4] (first compound 4 µM) turned out to be 0.955.
